Measurements published in publication PMC10669220, “In Vitro α-Glucosidase and α-Amylase Inhibition, Cytotoxicity and Free Radical Scavenging Profiling of the 6-Halogeno and Mixed 6,8-Dihalogenated 2-Aryl-4-methyl-1,2-dihydroquinazoline 3-Oxides” (Antioxidants, 2023).
Values joined by “and” are separate entries in the source; they are usually repeats but may differ in a detail not shown here. Equal entries are not always repeated.

Tests used:
[1] = target: T1, α-Glucosidase type 1 from baker's yeast (Saccharomyces cerevisiae, UniProt P53341); assay: biochemical; details: IC50 α-Glucosidase, mean ± SD, triplicate; tested at 1, 5, 10, 25, 50 µM
T1 construct: purchased Sigma Aldrich (Pty) Ltd. G5003
Experimental: The assay was conducted in triplicate following a method described in our previous study. […] After pre-incubation, 17 µL of 2 mM PNP-G was added. The absorbances were recorded in a 96-well microplate at 400 nm using an Elisa plate reader (Varioskan Flash, ThermoFischer Scientific, Vantaa, Finland). The average values obtained from the readings were used to determine the IC50 and standard deviation values using a GraphPad Prism software (Version 8, GraphPad Software Inc., San Diego, CA, USA). The average values obtained from the absorbance readings were used to determine the IC50 and standard deviation values in GraphPad prism from nonlinear regression dose–response curves.

human α-amylase = target: T2, human α-amylase (Homo sapiens, UniProt P04746); assay: α-amylase inhibitor screening kit assay; assay type: biochemical; details: mean ± SD, triplicate; tested at 1, 5, 10, 25, 50 µM
T2 construct: purchased Abcam ab283391
T2 sequence (P04746 16-511): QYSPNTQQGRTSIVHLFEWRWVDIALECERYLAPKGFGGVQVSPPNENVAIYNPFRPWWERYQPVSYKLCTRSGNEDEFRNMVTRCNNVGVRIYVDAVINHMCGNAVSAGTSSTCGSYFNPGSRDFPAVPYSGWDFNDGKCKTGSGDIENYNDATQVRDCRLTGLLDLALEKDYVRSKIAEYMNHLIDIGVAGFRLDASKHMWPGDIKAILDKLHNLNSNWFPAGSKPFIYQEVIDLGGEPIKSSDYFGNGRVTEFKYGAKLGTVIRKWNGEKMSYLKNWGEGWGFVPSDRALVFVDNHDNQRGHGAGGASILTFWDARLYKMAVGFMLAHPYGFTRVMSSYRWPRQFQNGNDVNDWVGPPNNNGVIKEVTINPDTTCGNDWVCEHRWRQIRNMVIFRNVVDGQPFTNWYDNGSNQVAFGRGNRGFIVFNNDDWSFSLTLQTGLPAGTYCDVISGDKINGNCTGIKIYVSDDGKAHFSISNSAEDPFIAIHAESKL
Experimental: The α-amylase assay was performed in triplicate, using a 96-well plate following the procedure recommended by the manufacturer as outlined in the α-amylase inhibitor Screening Kit (Catalogue No. ab283391; Abcam). […] The average values obtained from the absorbance readings were used to determine the IC50 and standard deviation values in GraphPad prism from nonlinear regression dose–response curves.

[2] = DPPH radical scavenging assay; details: mean ± SD; 45 min in the dark; 512 nm
Experimental: The DPPH radical scavenging assay was conducted following the procedure described in our previous study. The test compounds and ascorbic acid at various concentrations (ranging from 0 µM to 50 µM) in DMSO were mixed with a solution of DPPH (0.20 mM) in methanol and incubated in the dark for 45 min. Five absorbance readings were recorded at 512 nm using an Elisa plate reader (Varioskan Flash, ThermoFisher Scientific, Vantaa, Finland). The experiment was carried out in triplicate, and averaged values from the absorbance readings were used to determine the IC50 and standard deviation values in GraphPad prism from nonlinear regression dose–response curves.

[3] = NO free radical scavenging assay (sodium nitroprusside/Griess); details: mean ± SD; sodium nitroprusside, Griess reagent, 550 nm
Experimental: The assay was conducted following the method described in our previous study. A mixture of 10 mM sodium nitroprusside (20 µL), phosphate buffer (5 µL) and the test compound (5 µL) were incubated at 25 °C in a 96-well plate for 2.5 h. After incubation, 20 µL of Griess reagent (1.00 g of sulfanilic acid + 0.10 g naphthylethylene diamine dihydrochloride) was added to the previous mixture and allowed to stand for 30 min. […] Each experiment was performed in triplicate, and the average was taken. The average obtained from the absorbance readings was used to calculate the IC50 values in GraphPad prism from nonlinear regression dose–response curves.

[4] = system: NO generated from nitric oxide synthase (NOS); assay: Inhibitory activity against NO generated from NOS (EnzyChrom kit); assay type: biochemical; details: mean ± SD, 1-50 µM
Experimental: (§1) A nitric oxide synthase (NOS) assay was performed following the procedure recommended by the manufacturer as outlined in the screening kit (Catalogue No. EINO-100; EnzyChrom). Various concentrations (1, 5, 10, 25 and 50 µM) of the compounds 3a, 3c, 3f, 3i, 3l, 3n and 3p and the reference standard, ascorbic acid, were prepared. The enzyme solution (12.5 U/mL NOS, 10 µL), assay buffer (25 µL) and test samples (5 µL) were incubated at room temperature for 15 min. After pre-incubation, 10 µL of reaction mix was added and incubated at 37 °C for 60 min. A 200 µL quantity of NO detection reagent was added, the detection reaction was run at 37 °C for 60 min, and absorbance was determined at a wavelength of 540 nm using an Elisa plate reader (Varioskan Flash, ThermoFisher Scientific, Vantaa, Finland). The average of three readings was used to calculate the NOS percentage inhibition using the following formula: % Inhibition=1−ΔOD Test Compd/ΔOD No Inhibitor ×100%
The IC50 values and standard deviation values were determined from nonlinear regression dose–response curve and compared with the results in GraphPad prism.

[5] = target: superoxide dismutase (SOD); assay: Superoxide dismutase (SOD) inhibitory assay (SOD assay kit-WST); assay type: biochemical; details: duplicate; 1-50 µM; 25 °C, 30 min; read-out: IC50 SOD inhibition
Experimental: The antioxidant activity of the compounds 3a, 3c, 3f, 3i, 3l, 3n and 3p against superoxide radicals was assessed via enzymatic assay in vitro using the SOD assay kit-WST according to the manufacturer’s instructions (Sigma-Aldrich®). The reaction mixtures in the SOD kit were combined with 20 μL of working solution of the samples in a 96-well plate. Plates were gently shaken and then incubated at 25 °C for 30 min. The reference positive control, diphenyleneiodonium (DPI), and the compounds were tested at 01, 5, 10, 25 and 50 µM in duplicates. The inhibition activity of SOD on the reaction of […] generated the superoxide with a tetrazolium salt, which was then determined by measuring the absorbance of the mixtures at a wavelength of 450 nm using an Elisa plate reader (Varioskan Flash, ThermoFisher Scientific, Vantaa, Finland). The SOD activity values obtained used to calculate the percentage of inhibition. % SOD activity=ODx− ODy/ODx ×100% where ODx is the absorbance of the blank (untreated SOD) and ODy is the absorbance of the sample (treated SOD). All tests were performed in duplicate.

[6] = system: lung cancer (A549) cell line; assay: MTT cytotoxicity assay, A549; details: for Cell viability percentage, A549: Table S3; for IC50: Homo sapiens, A549, read-out: IC50 A549
Experimental: (§2) Cells were cultured in sterile Dulbecco’s Minimal Essential Medium (DMEM, Gibco) supplemented with 10% fetal bovine serum (FBS) and 1% penicillin-streptomycin solution. […] Cell counting was carried out using a handheld automated cell counter (Scapter 3.0™, Merck, Burlington, MA, USA) and seeded (1 × 10^4 cells/well) into a 96-well plate. After 24 h, the cells were treated with different concentrations (1, 5, 10, 25 and 50 µM) of the test compounds and reference standards prepared in DMEM. The MTT solution (20 μL) prepared in PBS (5 mg/mL) was added to all the wells, and the plates were incubated for 4 h, followed by 1 h incubation with 100 µL of dimethyl sulfoxide (DMSO) to dissolve the formazan crystals. Untreated cells and 5% DMSO were included in the experiment as negative controls. All experiments were performed in triplicate. The plates were read at 570 nm at a reference wavelength of 630 nm using an ELISA plate reader (Varioskan Flash, ThermoFisher Scientific, Vantaa, Finland). The percentage of cell viability was calculated using the following formula, Cell viability %=At/Ab×100 where At represents the absorbance value of test compound and Ab the absorbance value of the blank. […] The data were expressed as means ± SD.

[7] = system: breast cancer (MCF-7) cell line; assay: MTT cytotoxicity assay, MCF-7; details: for Cell viability percentage, MCF-7: Table S2; for IC50: Homo sapiens, MCF7, read-out: IC50 MCF-7
Experimental: as §2

[8] = MTT cytotoxicity assay, HEK293-T; details: human, HEK293-T cells
Experimental: as §2

[9] = system: human embryonic kidney (HEK293-T) cell line; assay: MTT cytotoxicity assay, HEK293-T; details: Homo sapiens, HEK-293T, read-out: IC50 Hek293-T
Experimental: as §2

[10] = system: nitric oxide synthase (NOS); assay: Kinetic study on inhibitory activity of NOS; assay type: biochemical; details: seven concentrations 1-10.0 μM; Figure 3; read-out: IC50 NOS inhibition (kinetic study)
Experimental: as §1, with “2.5, 4.0, 5.5, 7.0, 8.5” for “5, 10, 25”, “10.0” for “50”, “3i” for “3a, 3c, 3f, 3i, 3l, 3n and 3p”, “DPI,” for “ascorbic acid,”, “uL),” for “µL),”, “formula in Section 2.6.3” for “following formula: % Inhibition=1−ΔOD Test Compd/ΔOD No Inhibitor ×100%”

[11] = system: NOS of semipurified enzyme preparation or activated macrophage cytosol; details: 30 min. incubation with 10 μM DPI at 37 °C; cited from earlier work

T1 sequence (P53341 whole entry): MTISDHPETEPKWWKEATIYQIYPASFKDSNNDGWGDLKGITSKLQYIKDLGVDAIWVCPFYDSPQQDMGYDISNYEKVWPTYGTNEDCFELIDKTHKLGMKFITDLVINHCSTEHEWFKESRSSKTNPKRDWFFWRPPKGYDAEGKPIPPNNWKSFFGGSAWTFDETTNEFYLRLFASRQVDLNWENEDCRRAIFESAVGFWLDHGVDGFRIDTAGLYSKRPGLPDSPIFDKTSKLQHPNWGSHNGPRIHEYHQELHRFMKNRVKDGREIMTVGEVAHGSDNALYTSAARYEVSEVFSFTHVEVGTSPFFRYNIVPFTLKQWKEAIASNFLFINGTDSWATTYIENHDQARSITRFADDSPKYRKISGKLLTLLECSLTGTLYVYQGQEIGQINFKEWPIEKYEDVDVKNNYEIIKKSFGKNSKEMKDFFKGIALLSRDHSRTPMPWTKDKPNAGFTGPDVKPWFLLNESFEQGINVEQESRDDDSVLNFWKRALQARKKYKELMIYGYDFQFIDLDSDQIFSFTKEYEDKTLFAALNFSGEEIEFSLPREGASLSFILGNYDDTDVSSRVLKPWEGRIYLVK

Compound | IC50 [1] | IC50 (human α-amylase) [µM] | IC50 [2] [µM] | IC50 [3] [µM] | IC50 [4] [µM] | IC50 [5] [µM] | melting point [°C] | Cell viability percentage, A549 ([6]; Conc. 1 (µM per method)) | Cell viability percentage, A549 ([6]; Conc. 5 (µM per method)) | Cell viability percentage, A549 ([6]; Conc. 10 (µM per method)) | Cell viability percentage, A549 ([6]; Conc. 25 (µM per method)) | Cell viability percentage, A549 ([6]; Conc. 50 (µM per method)) | IC50 [6] [µM] | Cell viability percentage, MCF-7 ([7]; Conc. 1 (µM per method)) | Cell viability percentage, MCF-7 ([7]; Conc. 5 (µM per method)) | Cell viability percentage, MCF-7 ([7]; Conc. 10 (µM per method)) | Cell viability percentage, MCF-7 ([7]; Conc. 25 (µM per method)) | Cell viability percentage, MCF-7 ([7]; Conc. 50 (µM per method)) | IC50 [7] [µM] | viability at 1 µM [8] [%] | other results
COc1ccc(C2Nc3c(I)cc(Br)cc3C(C)=[N+]2[O-])cc1 (stereo not drawn) [Compound 3l] | 920 nM and 1040 nM | 54.18 ± 0.01 | 27.7 ± 0.04 | 67.81 ± 0.004 | 1.06 ± 0.005 | 5.6 ± 0.17 | 153 to 155 | 89,6276% | 82,1465% | 60,333% | 45,5732% | 45,4944% | 16.34 ± 0.06 | 66,3742% | 55,5856% | 51,5919% | 35,1896% | 17,5102% | 18.12 ± 0.1 | 80.4 | viability at 5 µM [8]: 69.4%; viability at 10 µM [8]: 59.2%; viability at 25 µM [8]: 25.5%; viability at 50 µM [8]: 19.7%; IC50 [9]: 32.39 ± 0.17 µM
CC1=[N+]([O-])C(c2ccc(F)cc2)Nc2c(Br)cc(I)cc21 (stereo not drawn) [Compound 3n] | 43230 ± 50 nM | 4.71 ± 0.01 | 6.84 ± 0.009 | 0.88 ± 0.004 | 3.5 ± 0.01 | 6.2 ± 0.12 | 125 to 127 | 79,9753% | 73,2703% | 62,0205% | 43,4807% | 30,3521% | 17.22 ± 0.07 | 34,8969% | 33,2335% | 31,9528% | 31,7365% | 30,1896% | 14.79 ± 0.1 | 75.1 | viability at 5 µM [8]: 70.1%; viability at 10 µM [8]: 54.1%; viability at 25 µM [8]: 39.6%; viability at 50 µM [8]: 20.5%; IC50 [9]: 32.42 ± 0.06 µM
COc1ccc(C2Nc3c(Br)cc(I)cc3C(C)=[N+]2[O-])cc1 (stereo not drawn) [Compound 3p] | 780 ± 50 nM | 73.66 ± 0.02 | 60.03 ± 0.014 | 5.46 ± 0.004 | 15.51 ± 0.009 | 8.3 ± 0.04 | 173 to 174 | 45,0433% | 44,7771% | 43,6627% | 42,5649% | 39,3879% | 12.24 ± 0.02 | 72,4624% | 70,8112% | 59,2339% | 43,212% | 27,8817% | 13.47 ± 0.06 | 83.4 | viability at 5 µM [8]: 81.4%; viability at 10 µM [8]: 75.8%; viability at 25 µM [8]: 74.7%; viability at 50 µM [8]: 18.4%; IC50 [9]: 59.02 ± 0.02 µM
c1ccc2c(c1)[I+]c1ccccc1-2 [DPI, diphenyleneiodonium chloride, reference compound] |  |  |  |  |  | 0.71 ± 0.03 |  |  |  |  |  |  |  |  |  |  |  |  |  |  | IC50 [10]: 3000 ± 7 nM; NOS activity after incubation with inhibitor [11]: irreversibly inhibited
